System: EKP-induced epileptiform discharges in zebrafish larvae
Assay: Zebrafish EKP seizure model, electrophysiology (non-invasive LFP recordings, PSD analysis)
Format: in vivo, zebrafish (Danio rerio)
Conditions: 22 h incubation, 7 dpf larvae, mean, normalized PSD 20-90 Hz
Procedure: Non-invasive LFP recordings were measured from the midbrain (optic tectum) of 7 dpf zebrafish larvae pre-incubated with VHC only, EKP only, or compound and EKP. […] These steps occurred at 28° C., while further manipulation and electrophysiological recordings occurred at room temperature (±21° C.) and were performed as described before (16, 27). Each recording lasted 600 seconds.
A power spectral density (PSD) analysis of the recordings was performed using MatLab R2019 software (MATrix LABoratory, USA) as described in (26). The PSD estimate of each LFP recording was summed over each 10 Hz frequency band, ranging from 0 to 160 Hz. Next, the PSD estimates were normalized against the VHC control. Data are expressed as mean±SEM PSD per larva and per condition over the 20-90 Hz region. Outliers were identified via the ROUT test (Q=1%).
PSD analysis assumes that the epileptiform activity manifests as a high-power oscillation at certain frequencies (26). Thus, if epileptic activity occurs often during the recording an elevated PSD estimate should be found at the corresponding frequency band(s) (26).

**Q.** How did the “efficacy against EKP-induced epileptiform discharges 2 μM” value turn out when `CCSC(=CC(=O)c1ccccc1)c1ccc(C(C)(C)C)cc1` (mixture of isomers) [Compound 5.1, (E/Z)-3-(4-(tert-butyl)phenyl)-3-(ethylthio)-1-phenylprop-2-en-1-one] was run?
**A.** 36%

**Q.** With `COc1ccccc1C(O)C#Cc1ccc(C(C)(C)C)cc1` (racemic) [Compound 3.1, rac-3-(4-(tert-butyl)phenyl)-1-(2-methoxyphenyl)prop-2-yn-1-ol] as the compound, how does the “efficacy against EKP-induced epileptiform discharges 2 μM” value read?
**A.** 79%

**Q.** What does the source list for `CC(C)(C)c1ccc(C#CC(O)c2ccccc2O)cc1` (racemic) [Compound 3.2, rac-2-(3-(4-(tert-butyl)phenyl)-1-hydroxyprop-2-yn-1-yl)phenol]?
**A.** efficacy against EKP-induced epileptiform discharges 2 μM: 26%; efficacy against EKP-induced epileptiform discharges 10 μM: 57%

**Q.** With `Nc1ncccc1C(O)C#Cc1cccc(Cl)c1` (racemic) [Compound 3.4, rac-1-(2-aminopyridin-3-yl)-3-(3-chlorophenyl)prop-2-yn-1-ol] as the compound, how does the “efficacy against EKP-induced epileptiform discharges 2 μM” value read?
**A.** 7%

**Q.** And the “efficacy against EKP-induced epileptiform discharges 10 μM” value?
**A.** 7%

**Q.** With `Nc1ncccc1C(=O)C#Cc1ccccc1` [Compound 1.1, 1-(2-aminopyridin-3-yl)-3-phenylprop-2-yn-1-one] as the compound, how does the “efficacy against EKP-induced epileptiform discharges 2 μM” value read?
**A.** 65%

**Q.** Which “efficacy against EKP-induced epileptiform discharges 2 μM” value does the source give for `Nc1ncccc1C(=O)C#Cc1ccc(F)cc1` [Compound 1.2, 1-(2-aminopyridin-3-yl)-3-(4-fluorophenyl)prop-2-yn-1-one] here?
**A.** 80%

**Q.** Which results are given for `CC(C)[Si](C#CC(=O)c1cccnc1N)(C(C)C)C(C)C` [Compound 1.3, 1-(2-aminopyridin-3-yl)-3-(triisopropylsilyl)prop-2-yn-1-one]?
**A.** efficacy against EKP-induced epileptiform discharges 2 μM: 67%; efficacy against EKP-induced epileptiform discharges 10 μM: −23%

**Q.** For `Nc1ncccc1C(=O)C#CC1CCCCC1` [Compound 1.4, 1-(2-aminopyridin-3-yl)-3-cyclohexylprop-2-yn-1-one], which “efficacy against EKP-induced epileptiform discharges 2 μM” value is on record?
**A.** 69%

**Q.** For `CCCCCC#CC(=O)c1cccnc1N` [Compound 1.5, 1-(2-aminopyridin-3-yl)oct-2-yn-1-one], which “efficacy against EKP-induced epileptiform discharges 2 μM” value is on record?
**A.** 91%

**Q.** With `CC(C)C#CC(=O)c1cccnc1N` [Compound 1.6, 1-(2-aminopyridin-3-yl)-4-methylpent-2-yn-1-one] as the compound, how does the “efficacy against EKP-induced epileptiform discharges 2 μM” value read?
**A.** 1%

**Q.** How did the “efficacy against EKP-induced epileptiform discharges 2 μM” value turn out when `Nc1ncccc1C(=O)C#Cc1ccc(Cl)cc1` [Compound 1.7, 1-(2-aminopyridin-3-yl)-3-(4-chlorophenyl)prop-2-yn-1-one] was run?
**A.** 70%

**Q.** For `COC(=O)c1ccc(C#CC(=O)c2cccnc2N)cc1` [Compound 1.8, methyl 4-(3-(2-aminopyridin-3-yl)-3-oxoprop-1-yn-1-yl)benzoate], which “efficacy against EKP-induced epileptiform discharges 2 μM” value is on record?
**A.** 18%

**Q.** `COc1ccc(C#CC(=O)c2cccnc2N)cc1` [Compound 1.9, 1-(2-aminopyridin-3-yl)-3-(4-methoxyphenyl)prop-2-yn-1-one] was tested. Which “efficacy against EKP-induced epileptiform discharges 2 μM” value did it give?
**A.** 35%

**Q.** With `Nc1ncccc1C(=O)C#Cc1cccc(Cl)c1` [Compound 1.10, 1-(2-aminopyridin-3-yl)-3-(3-chlorophenyl)prop-2-yn-1-one] as the compound, how does the “efficacy against EKP-induced epileptiform discharges 2 μM” value read?
**A.** −42%

**Q.** Which “efficacy against EKP-induced epileptiform discharges 2 μM” value does the source give for `Nc1ncccc1C(=O)C#Cc1ccc(C(F)(F)F)cc1` [Compound 1.11, 1-(2-aminopyridin-3-yl)-3-(4-(trifluoromethyl)phenyl)prop-2-yn-1-one] here?
**A.** 47%

**Q.** How did the “efficacy against EKP-induced epileptiform discharges 2 μM” value turn out when `Cc1ccc(C#CC(=O)c2cccnc2N)cc1` [Compound 1.12, 1-(2-aminopyridin-3-yl)-3-(p-tolyl)prop-2-yn-1-one] was run?
**A.** 86%

**Q.** `CC(C)(C)c1ccc(C#CC(=O)c2ccccc2N)cc1` [Compound 1.14, 1-(2-aminophenyl)-3-(4-(tert-butyl)phenyl)prop-2-yn-1-one] was tested. Which “efficacy against EKP-induced epileptiform discharges 2 μM” value did it give?
**A.** 60%

**Q.** How did the “efficacy against EKP-induced epileptiform discharges 2 μM” value turn out when `CC(C)(C)c1ccc(C#CC(=O)c2cccnc2)cc1` [Compound 1.15, 3-(4-(tert-butyl)phenyl)-1-(pyridin-3-yl)prop-2-yn-1-one] was run?
**A.** −49%

**Q.** With `CC(C)(C)c1ccc(C#CC(=O)c2ccccc2)cc1` [Compound 1.16, 3-(4-(tert-butyl)phenyl)-1-phenylprop-2-yn-1-one] as the compound, how does the “efficacy against EKP-induced epileptiform discharges 2 μM” value read?
**A.** 38%

**Q.** With `Nc1ncccc1C(=O)C#Cc1cccc(C(F)(F)F)c1` [Compound 1.17, 1-(2-aminopyridin-3-yl)-3-(3-(trifluoromethyl)phenyl)prop-2-yn-1-one] as the compound, how does the “efficacy against EKP-induced epileptiform discharges 2 μM” value read?
**A.** 61%

**Q.** For `COc1ccccc1C(=O)C#Cc1ccc(C(C)(C)C)cc1` [Compound 1.18, 3-(4-(tert-butyl)phenyl)-1-(2-methoxyphenyl)prop-2-yn-1-one], which “efficacy against EKP-induced epileptiform discharges 2 μM” value is on record?
**A.** 71%

**Q.** `CC(C)(C)c1ccc(C#CC(=O)c2ccccc2O)cc1` [Compound 1.19, 3-(4-(tert-butyl)phenyl)-1-(2-hydroxyphenyl)prop-2-yn-1-one] was tested. Which “efficacy against EKP-induced epileptiform discharges 2 μM” value did it give?
**A.** −23%

**Q.** `CC(C)(C)c1ccc(C#CC(=O)c2ncccc2N)cc1` [Compound 1.24, 1-(3-aminopyridin-2-yl)-3-(4-(tert-butyl)phenyl)prop-2-yn-1-one] was tested. Which “efficacy against EKP-induced epileptiform discharges 2 μM” value did it give?
**A.** 45%

**Q.** What about the “efficacy against EKP-induced epileptiform discharges 10 μM” value of the same compound?
**A.** 11%

**Q.** For `O=C(C#Cc1cccc(Cl)c1)c1cccnc1` [Compound 1.25, 3-(3-chlorophenyl)-1-(pyridin-3-yl)prop-2-yn-1-one], which “efficacy against EKP-induced epileptiform discharges 2 μM” value is on record?
**A.** −43%

**Q.** For `O=C(C#Cc1cccc(Cl)c1)c1ncc[nH]1` [Compound 1.26, 3-(3-chlorophenyl)-1-(1H-imidazol-2-yl)prop-2-yn-1-one], which “efficacy against EKP-induced epileptiform discharges 2 μM” value is on record?
**A.** 51%

**Q.** `CN(C)c1ncccc1C(=O)C#Cc1cccc(Cl)c1` [Compound 1.27, 3-(3-chlorophenyl)-1-(2-(dimethylamino)pyridin-3-yl)prop-2-yn-1-one] was tested. Which “efficacy against EKP-induced epileptiform discharges 2 μM” value did it give?
**A.** −52%

**Q.** Which “efficacy against EKP-induced epileptiform discharges 2 μM” value does the source give for `O=C(C#Cc1ccccc1)c1ccccc1` [Compound 1.28, 1,3-diphenylprop-2-yn-1-one] here?
**A.** 25%

**Q.** How did the “efficacy against EKP-induced epileptiform discharges 2 μM” value turn out when `COc1ccc(C#CC(=O)c2ccccc2)cc1` [Compound 1.29, 3-(4-methoxyphenyl)-1-phenylprop-2-yn-1-one] was run?
**A.** 26%

**Q.** For `Cc1ccc(C#CC(=O)c2ccccc2)cc1` [Compound 1.30, 1-phenyl-3-(p-tolyl)prop-2-yn-1-one], which “efficacy against EKP-induced epileptiform discharges 2 μM” value is on record?
**A.** 28%

**Q.** How did the “efficacy against EKP-induced epileptiform discharges 2 μM” value turn out when `COc1cccc(C#CC(=O)c2ccccc2)c1` [Compound 1.32, 3-(3-methoxyphenyl)-1-phenylprop-2-yn-1-one] was run?
**A.** 29%

**Q.** `Cc1cccc(C#CC(=O)c2ccccc2)c1` [Compound 1.33, 1-phenyl-3-(m-tolyl)prop-2-yn-1-one] was tested. Which “efficacy against EKP-induced epileptiform discharges 2 μM” value did it give?
**A.** 50%

**Q.** With `O=C(C#Cc1cccc(Cl)c1)c1ccccc1` [Compound 1.34, 3-(3-chlorophenyl)-1-phenylprop-2-yn-1-one] as the compound, how does the “efficacy against EKP-induced epileptiform discharges 2 μM” value read?
**A.** 21%

**Q.** Which “efficacy against EKP-induced epileptiform discharges 2 μM” value does the source give for `COc1ccccc1C#CC(=O)c1ccccc1` [Compound 1.36, 3-(2-methoxyphenyl)-1-phenylprop-2-yn-1-one] here?
**A.** 52%

**Q.** For `Cc1ccccc1C#CC(=O)c1ccccc1` [Compound 1.37, 1-phenyl-3-(o-tolyl)prop-2-yn-1-one], which “efficacy against EKP-induced epileptiform discharges 2 μM” value is on record?
**A.** 28%

**Q.** How did the “efficacy against EKP-induced epileptiform discharges 2 μM” value turn out when `O=C(C#Cc1ccccc1Cl)c1ccccc1` [Compound 1.38, 3-(2-chlorophenyl)-1-phenylprop-2-yn-1-one] was run?
**A.** −63%

From patent US20250186408A1, “TREATMENT OF PHARMACORESISTANT EPILEPSY” (Katholieke Universiteit Leuven, priority 2021, published 2025)
